Reference: PubChem BioAssay AID1963436 (Molecular Pharmacology Branch, DTP, NCI, 2024)

Test system: OVCAR-5 complex spheroid (HUVEC/MSC), viability % T/C
Experiment: Anticancer human tumor OVCAR-5 cell line growth inhibition [Asc];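 note: spheroids exposed to agents for 7 days before readout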;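 for viability, T/C: 100% = DMSO vehicle-treated wells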
Conditions: for IC50: curve of first compound; for viability, T/C: stronger effect = lower value
Method: Multicellular complex tumor spheroid response to apoptosis pathway targeting inhibitors Alrizomadlin, Pelcitoclax, and Dasminapant in combination with a variety of drugs and investigational agents in selected tumor cell lines
The MDM2 inhibitor alrizomadlin, the Bcl-2/Bcl-xL inhibitor pelcitoclax, and the IAPs inhibitor dasminapant were evaluated both individually and in combination with standard of care and investigational anticancer small molecules within a complex spheroid model of solid tumors. . Complex spheroids include a stromal component modeled by human endothelial cells (HUVEC) and fibroblasts modeled by human mesenchymal stem cells (MSCs). The concentration ranges selected for each drug and investigational agent were based upon clinically achievable concentrations if the clinical Cmax of the agent was known.
Compounds. The drugs and investigational agents: alrizomadlin (APG-115; NSC831270), pelcitoclax (APG-1252; NSC835773), dasminapant (APG-1387;NSC834197), TAK-243 (NSC785004), copanlisib (NSC809693), olaparib (NSC753686), talazoparib (NSC767125), cobimetinib (NSC 768068), eltanexor (KPT-8602, NSC 794443), abemaciclib (NSC 768073), sotorasib (NSC818433), adagrasib (NSC 831453), MRTX-1133 (NSC 836407), Iadademestat (ORY1001, NSC 806812), and RMC-4630 (NSC839698), were obtained from the NCI Developmental Therapeutics Program Chemical Repository. The FDA-approved anticancer drug set is available from the Developmental Therapeutics Program at https://dtp.cancer.gov/organization/dscb/obtaining/available plates.htm. […] The stock solutions were prepared in dimethyl sulfoxide (DMSO, Sigma-Aldrich, St. Louis, MO, cat. D2650) at 800-fold the tested concentration and stored at -70 degrees C prior to their use. All drugs and investigational agents were tested over a range starting from a high concentration at or near the clinical Cmax and decreasing in half-log increments. If the clinical Cmax for an agent had not been determined, the highest concentration tested was 10 microM.
The patient-derived cancer (PDC) cell lines include five colon adenocarcinomas: 186277-243-T-J2-PDC, 616215-338-R-J1-PDC, 439559-082-T-J2-PDC, 463943-066-T-J2-PDC, and 519858-162-T-J1-PDC; three pancreatic carcinomas: 323965-272-R-J2-PDC, 521955-158-R6-J3-PDC, and 521955-158-R2-J5-PDC; two uterine sarcomas: 327498-152-R-J2-PDC and 993429-296-R-J1-PDC; two rhabdomyosarcomas: 755483-174-R-J1-PDC and 772245-204-R-J1-PDC; two soft tissue sarcomas: 126254-015-R-J1-PDC and 494315-158-R-J1-PDC; two malignant fibrous histiocytomas: 317291-083-R-J1-PDC and 596521-263-R-J1-PDC; two breast carcinomas: 171881-019-R-J1-PDC and 885512-296-R-J2-PDC; and one ovarian carcinoma: 6556581-035-R-J-PDC were obtained from the NCI PDMR, (https://pdmr.cancer.gov). The established cell lines HSSY-2 synovial sarcoma (RRID:CVCL 8719), SYO-1 synovial sarcoma (RRID:CVCL_7146), MPNST malignant peripheral neural sheath tumor were obtained from the Sloan Kettering Institute. The following established cell lines were purchased from the American Type Culture Collection (ATCC, Manassas, VA), Sor the received from the NCI repository:, PANC-1 pancreatic carcinoma (CRL-1469, RRID:CVCL_0480), OVCAR-5 ovarian carcinoma (RRID:CVCL_1628), OVCAR-8 ovarian carcinoma (RRID:CVCL_1629), , MCF-7 breast carcinoma (CRL-12584, RRID:CVCL_0031), MDA-MB-231 breast carcinoma (CRL-12532, RRID:CVCL_0062), NCI-H1876 small cell lung carcinoma (CRL-5902, RRID:CVCL_1503), NCI-H510A small cell lung carcinoma (HTB-184, RRID:CVCL_1565), NCI-H1417 (CRL-5869, RRID:CVCL_1469), and NCI-H196 small cell lung carcinoma (CRL-5823, RRID:CVCL_1509). Dr. Peter Houghton (Greehey Children's Cancer Research Institute, University of Texas Health Science Center, San Antonio, TX) provided Rh-18 rhabdomyosarcoma (RRID:CVCL_1659). Pooled donor human umbilical vein endothelial cells (HUVEC, Lonza, cat. CC-2519) and human mesenchymal stem cells (hMSC, Lonza, cat. PT-2501) were purchased from Lonza (Walkersville, MD).
Cell Culture. […]

[1] = second compound 0.03 µM, first compound 0.0316 µM
[2] = second compound 0.03 µM, first compound 0.1 µM
[3] = second compound 0.03 µM, first compound 0.316 µM
[4] = second compound 0.03 µM, first compound 1 µM
[5] = second compound 0.0949 µM, first compound 0.0316 µM
[6] = second compound 0.0949 µM, first compound 0.1 µM
[7] = second compound 0.0949 µM, first compound 0.316 µM
[8] = second compound 0.0949 µM, first compound 1 µM
[9] = second compound 0.3 µM, first compound 0.0316 µM
[10] = second compound 0.3 µM, first compound 0.1 µM
[11] = second compound 0.3 µM, first compound 0.316 µM
[12] = second compound 0.3 µM, first compound 1 µM
[13] = second compound 0.949 µM, first compound 0.0316 µM
[14] = second compound 0.949 µM, first compound 0.1 µM
[15] = second compound 0.949 µM, first compound 0.316 µM
[16] = second compound 0.949 µM, first compound 1 µM
[17] = second compound 3 µM, first compound 0.0316 µM
[18] = second compound 3 µM, first compound 0.1 µM
[19] = second compound 3 µM, first compound 0.316 µM
[20] = second compound 3 µM, first compound 1 µM

| SMILES | IC50 (second compound 0.03 µM) | IC50 (second compound 0.0949 µM) | IC50 (second compound 0.3 µM) | IC50 (second compound 0.949 µM) | IC50 (second compound 3 µM) | viability, T/C [1] | viability, T/C [2] | viability, T/C [3] | viability, T/C [4] | viability, T/C [5] | viability, T/C [6] | viability, T/C [7] | viability, T/C [8] | viability, T/C [9] | viability, T/C [10] | viability, T/C [11] | viability, T/C [12] | viability, T/C [13] | viability, T/C [14] | viability, T/C [15] | other results |
| --- | --- | --- | --- | --- | --- | --- | --- | --- | --- | --- | --- | --- | --- | --- | --- | --- | --- | --- | --- | --- | --- |
| O=C(c1cc(Cc2n[nH]c(=O)c3ccccc23)ccc1F)N1CCN(C(=O)C2CC2)CC1 + CCN1C(C(=O)NC23CCC(C(=O)O)(CC2)CC3)C(c2cccc(Cl)c2F)C2(C(=O)Nc3cc(Cl)ccc32)C12CCCCC2 | > 10000 nM | > 10000 nM | > 10000 nM | > 10000 nM | > 10000 nM | 96% | 104% | 83.9% | 86.8% | 101% | 110% | 93.8% | 85.8% | 101% | 97.2% | 97.7% | 75.1% | 106% | 105% | 102% | viability, T/C (second compound 0.03 µM, first compound 3.16 µM): 92.5%; viability, T/C (second compound 0.03 µM, first compound 10 µM): 83.3%; viability, T/C (second compound 0.0949 µM, first compound 3.16 µM): 85.4%; viability, T/C (second compound 0.0949 µM, first compound 10 µM): 85%; viability, T/C (second compound 0.3 µM, first compound 3.16 µM): 86.3%; viability, T/C (second compound 0.3 µM, first compound 10 µM): 82.7%; viability, T/C [16]: 92%; viability, T/C (second compound 0.949 µM, first compound 3.16 µM): 89%; viability, T/C (second compound 0.949 µM, first compound 10 µM): 97.6%; viability, T/C [17]: 104%; viability, T/C [18]: 115%; viability, T/C [19]: 111%; viability, T/C [20]: 96.5%; viability, T/C (second compound 3 µM, first compound 3.16 µM): 88.9%; viability, T/C (second compound 3 µM, first compound 10 µM): 91.5% |
| O=C(c1ccc(F)c(F)c1Nc1ccc(I)cc1F)N1CC(O)([C@@H]2CCCCN2)C1 + CCN1C(C(=O)NC23CCC(C(=O)O)(CC2)CC3)C(c2cccc(Cl)c2F)C2(C(=O)Nc3cc(Cl)ccc32)C12CCCCC2 | 96.2 nM | 81.4 nM | 83.6 nM | 81.6 nM | 56.2 nM | 68.4% | 49.4% | 41.6% | 34.6% | 66.8% | 45.5% | 42.9% | 32.1% | 66.3% | 45.4% | 43.9% | 33.2% | 64.2% | 46.8% | 40% | viability, T/C (second compound 0.03 µM, first compound 0.00316 µM): 90.3%; viability, T/C (second compound 0.03 µM, first compound 0.01 µM): 88.7%; viability, T/C (second compound 0.0949 µM, first compound 0.00316 µM): 99.7%; viability, T/C (second compound 0.0949 µM, first compound 0.01 µM): 92.9%; viability, T/C (second compound 0.3 µM, first compound 0.00316 µM): 94.9%; viability, T/C (second compound 0.3 µM, first compound 0.01 µM): 87.8%; viability, T/C (second compound 0.949 µM, first compound 0.00316 µM): 87.3%; viability, T/C (second compound 0.949 µM, first compound 0.01 µM): 86.3%; viability, T/C [16]: 32%; viability, T/C (second compound 3 µM, first compound 0.00316 µM): 97.4%; viability, T/C (second compound 3 µM, first compound 0.01 µM): 89.2%; viability, T/C [17]: 61.5%; viability, T/C [18]: 37.6%; viability, T/C [19]: 37%; viability, T/C [20]: 28.8% |
